Data on 4 compounds can be found in US8835476B2, “Synthesis of novel antimicrobials” (priority 2005, dated 2014).

What is called MIC is the lowest concentration that inhibits growth of the organism.

Some results are limits rather than exact numbers.

Holding throughout (format): cell-based
One assay has as its system E. cloacae ATCC 23355. Briefly: Broth microdilution MIC, ATCC strains. Particulars: Enterobacter cloacae, ATCC23355; E. cloacae ATCC 23355; read-out: MIC (growth inhibition, microdilution method). A digest of the protocol:
(§1)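 Tested per NCCLS M7-A6 broth microdilution with an inoculum of 5×10^5 CFU/ml and DMSO controls matching solvent levels. Panels were incubated 16 to 20 hours at 35° C. in ambient air, and the MIC was taken as the lowest concentration inhibiting visible growth.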
In general terms: Broth dilution looks for growth in wells or tubes with falling amounts of substance.

The next assay has as its system E. faecium ATCC 35667. Briefly: Broth microdilution MIC, ATCC strains. Particulars: Enterococcus faecium, ATCC35667, read-out: MIC (growth inhibition, microdilution method). In outline: as §1
In a further assay the test system is P. mirabilis ATCC 29245. As to the kind of experiment: Broth microdilution MIC, ATCC strains. Particulars: Proteus mirabilis, ATCC29245; P. mirabilis ATCC 29245; read-out: MIC (growth inhibition, microdilution method). A digest of the protocol:
as §1

The next assay relates to Pr. stuartii ATCC 33672. Briefly: Broth microdilution MIC, ATCC strains. Particulars: Providencia stuartii, ATCC33672; Pr. stuartii ATCC 33672; read-out: MIC (growth inhibition, microdilution method). A digest of the protocol:
as §1

In assay [1] the test system is S. epidermidis ATCC 14990. As to the kind of experiment: Broth microdilution MIC, ATCC strains. Particulars: Staphylococcus epidermidis, ATCC14990; S. epidermidis ATCC 14990; read-out: MIC (growth inhibition, microdilution method). In outline: as §1
In assay [2] the test system is S. liquefaciens ATCC 27592. As to the kind of experiment: Broth microdilution MIC, ATCC strains. Particulars: S. liquefaciens ATCC 27592; read-out: MIC (growth inhibition, microdilution method). In outline:
as §1

Assay [3] deals with S. saprophyticus ATCC 15305. As to the kind of experiment: Broth microdilution MIC, ATCC strains. As to conditions: Staphylococcus saprophyticus, ATCC15305; S. saprophyticus ATCC 15305; read-out: MIC (growth inhibition, microdilution method). In outline: as §1
The subject of a further assay is S. simulans ATCC 27848. Briefly: Broth microdilution MIC, ATCC strains. Particulars: Staphylococcus simulans, ATCC27848, read-out: MIC (growth inhibition, microdilution method). A digest of the protocol:
as §1

The next assay concerns S. warneri ATCC 27836. Briefly: Broth microdilution MIC, ATCC strains. Particulars: Staphylococcus warneri, ATCC27836; S. warneri ATCC 27836; read-out: MIC (growth inhibition, microdilution method). In outline: as §1
Another assay deals with P. rettgeri CAP. As to the kind of experiment: Broth microdilution MIC, reference strains. As to conditions: Providencia rettgeri; P. rettgeri (CAP in Table 1); read-out: MIC (growth inhibition, microdilution method). An excerpt: All clinical isolates tested were from The North American Urinary Tract Infection Collaborative Alliance (NAUTICA) which is a UTI surveillance study involving 40 medical centres (30 from the US and 10 from Canada). Each centre submitted up to 50 consecutive outpatient midstream urine isolates. All isolates were deemed significant urinary tract pathogens by individual laboratory criteria and identified to the species level by each laboratory's existing protocol. Isolates were transported to the coordinating laboratory (Health Sciences Centre, Winnipeg, Canada) on charcoal swabs. Only one isolate per patient was accepted. Upon receipt, isolates were cultured by the coordinating laboratory, stocked in skim milk, and stored at −80° C. awaiting reference antibiotic susceptibility testing. Elementary demographic information was also compiled for each isolate. Isolates were selected randomly from the above pool to represent 18 different species of Enterobacteriaceae and non-Enterobacteriaceae. An average of 5 strains of each species were tested for a total of 93 organisms. In addition, 23 reference (ATCC) [both gram negative and gram positive] strains were tested.
Susceptibilities to the compounds were determined using the National Committee for Clinical Laboratory Standards (NCCLS) M7-A6 broth microdilution method. […] DMSO controls were incorporated into the panel to mimic the quantity of DMSO used in dissolving some of the compounds at the higher concentrations. Each final panel well volume was 100 μl with a bacterial inoculum of 5×10^5 colony forming units (CFU)/ml. Panels were read following 16 to 20 hours of incubation at 35° C. in ambient air. The minimum inhibitory concentration (MIC) was defined as the lowest concentration of antimicrobial inhibiting visible growth. Quality control (QC) was performed using four ATCC QC organisms that were run with every batch set up to insure reproducibility.

Assay [4] relates to Ps. aeruginosa clinical isolates. As to the kind of experiment: Broth microdilution MIC, clinical isolate strains (NAUTICA). Particulars: Table 4B; each table row is one clinical isolate; unit assumed. A digest of the protocol: as §1

In the case of `Cn1nnc(-c2cc(-c3ccc(F)cc3)sc2C(=O)O)n1` [DNM-142, 5-(4-Fluoro-phenyl)-3-(2-methyl-2H-tetrazol-5-yl)-thiophene-2-carboxylic acid], the MIC (in the assay on E. cloacae ATCC 23355; with E. faecium ATCC 35667; in the assay on P. mirabilis ATCC 29245; in the assay on Pr. stuartii ATCC 33672; in assay [1]; in [2]) was greater than 16 µg/mL in each case. Moreover, the MIC (in assay [3]; in the assay with S. simulans ATCC 27848; in the assay with S. warneri ATCC 27836; with P. rettgeri CAP) was greater than 16 µg/mL in each case. Also, the MIC, PS. AER in assay [4] was greater than 16 µg/mL.
With `Cn1nnnc1-c1cc(-c2ccc(F)cc2)sc1C(=O)O` [DNM-143, 5-(4-Fluoro-phenyl)-3-(1-methyl-1H-tetrazol-5-yl)-thiophene-2-carboxylic acid], the MIC (in the assay on E. cloacae ATCC 23355; in the assay with E. faecium ATCC 35667; in the assay on P. mirabilis ATCC 29245; with Pr. stuartii ATCC 33672; in assay [1]; in [2]) was greater than 8 µg/mL throughout. For the same compound, the MIC (in assay [3]; in the assay on S. simulans ATCC 27848; in the assay with S. warneri ATCC 27836; in the assay on P. rettgeri CAP) was greater than 8 µg/mL in each case. In addition, in assay [4], the MIC, PS. AER is greater than 8 µg/mL.
On to `COC(=O)c1sc(-c2ccc(F)cc2)cc1-c1nnn(C)n1` [DNM-144, 5-(4-fluoro-phenyl)-3-(2-methyl-2H-tetrazol-5-yl)-thiophene-2-carboxylic acid methyl ester], for which the MIC (in the assay on E. cloacae ATCC 23355; with E. faecium ATCC 35667; in the assay with P. mirabilis ATCC 29245; in the assay with Pr. stuartii ATCC 33672; in [1]; in assay [2]) was greater than 8 µg/mL throughout. In addition, the MIC (in assay [3]; with S. simulans ATCC 27848; in the assay on S. warneri ATCC 27836; in the assay with P. rettgeri CAP) was greater than 8 µg/mL in each case. This compound also returned an MIC, PS. AER in assay [4] greater than 8 µg/mL.
`COC(=O)c1sc(-c2ccc(F)cc2)cc1-c1nnnn1C` [DNM-145, 5-(4-Fluoro-phenyl)-3-(1-methyl-1H-tetrazol-5-yl)-thiophene-2-carboxylic acid methyl ester]: the MIC (in the assay on E. cloacae ATCC 23355; with E. faecium ATCC 35667; in the assay with P. mirabilis ATCC 29245; in the assay on Pr. stuartii ATCC 33672; in assay [1]; in assay [2]) was greater than 4 µg/mL throughout. The MIC (in assay [3]; in the assay with S. simulans ATCC 27848; in the assay on S. warneri ATCC 27836; in the assay with P. rettgeri CAP) was greater than 4 µg/mL in each case. In assay [4], this compound gave an MIC, PS. AER greater than 4 µg/mL.
